In EP4122499A1, “FIBROBLAST ACTIVATION PROTEIN INHIBITORS AND USE THEREOF” (3B Pharmaceuticals GmbH, priority 2021, dated 2023):

Key:
Recombinant human DPP4 = biological target: T1, Recombinant human DPP4 (Homo sapiens, UniProt P27487); experiment: DPP4 protease activity assay; format: biochemical; conditions: 20 µM GP-AMC substrate; read-out: pIC50 (DPP4) (converted)
T1 construct: purchased R&D systems 9168-SE
Procedure: The PREP activity assay was performed using the FACS buffer (PBS including 1% FBS, Sigma-Aldrich, Cat# D8537). […] The DPP4 activity assay was performed in DPP assay buffer (25 mM Tris, pH 8.0).
Four parameter logistic (4PL) curve fitting and pIC50 calculations were performed using ActivityBase software.

Human recombinant FAP [1] = biological target: T2, Human recombinant FAP (Homo sapiens, UniProt Q12884); experiment: FRET-based FAP protease activity assay (human); format: biochemical; parameters: purchased R&D systems 3715-SE; conditions: FRET-peptide substrate, 37°C; for IC50: read-out: pIC50 (Activity) (converted)
T2 sequence (Q12884 1-760): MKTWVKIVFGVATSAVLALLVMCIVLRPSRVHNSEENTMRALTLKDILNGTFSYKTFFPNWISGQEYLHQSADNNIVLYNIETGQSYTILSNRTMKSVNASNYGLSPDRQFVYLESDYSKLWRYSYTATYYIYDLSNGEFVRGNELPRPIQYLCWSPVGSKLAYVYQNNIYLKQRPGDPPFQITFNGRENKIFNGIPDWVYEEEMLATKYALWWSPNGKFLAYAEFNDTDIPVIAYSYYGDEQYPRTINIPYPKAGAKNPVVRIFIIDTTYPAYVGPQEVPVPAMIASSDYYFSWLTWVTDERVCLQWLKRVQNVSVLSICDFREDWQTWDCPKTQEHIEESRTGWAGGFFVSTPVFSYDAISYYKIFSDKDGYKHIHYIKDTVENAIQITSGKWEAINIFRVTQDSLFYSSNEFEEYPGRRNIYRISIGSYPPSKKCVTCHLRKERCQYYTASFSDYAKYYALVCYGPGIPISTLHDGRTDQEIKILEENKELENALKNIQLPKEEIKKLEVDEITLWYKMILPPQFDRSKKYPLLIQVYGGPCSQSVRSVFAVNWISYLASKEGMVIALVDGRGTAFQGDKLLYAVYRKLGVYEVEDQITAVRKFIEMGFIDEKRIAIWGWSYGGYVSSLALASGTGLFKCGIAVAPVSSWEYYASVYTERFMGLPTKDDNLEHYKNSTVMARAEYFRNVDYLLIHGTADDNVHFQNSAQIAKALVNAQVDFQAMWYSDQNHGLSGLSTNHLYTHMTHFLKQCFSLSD
Procedure: (§1) In order to determine the inhibitory activity a FRET-based FAP protease activity assay was established.
25 µL of a 30 µM substrate solution, diluted in assay buffer, was added. […] Four parameter logistic (4PL) curve fitting and pIC50 calculations were performed using ActivityBase software (IDBS).

[2] = biological target: T3, FAP-expressing human WI-38 fibroblasts (Homo sapiens, UniProt Q12884); experiment: Competitive FACS binding assay (displacement of Cy5-labeled FAP inhibitor 3BP-2935); conditions: 3 nM Cy5-labeled 3BP-2935, 4°C, 1 hour
T3 construct: FAP-expressing human WI-38 fibroblasts (ECACC 90020107) were cultured in EMEM; host or cells: WI-38 human fibroblasts
T3 sequence (Q12884 1-760): T2 sequence (Q12884 1-760)
Procedure: In order to determine binding of compounds according to the present invention to FAP-expressing cells, a competitive FACS binding assay was established.
Cells were diluted in FACS buffer to a final concentration of 100.000 cells per ml and 200 µl of the cell suspension are transferred to a u-shaped non-binding 96-well plate (Greiner).
Cell were washed twice with FACS buffer (see above) and resuspended in 200 µl FACS buffer. Cells were analyzed in an Attune NxT flow cytometer (Thermo Fisher Scientific). Median fluorescence intensities (Cy5 channel) was calculated by Attune NxT software and plotted against test compound concentrations. Four parameter logistic (4PL) curve fitting and pIC50 calculations were performed using ActivityBase software.

Human recombinant FAP [3] = biological target: T2, Human recombinant FAP; experiment: Surface plasmon resonance assay (Biacore T200, single cycle kinetics); format: binding; conditions: SPR, 25°C; for HL [min] (Biacore): half-life; for Kd / pKD (Biacore): 1:1 Langmuir binding model; for Kd: read-out: pKD (Biacore) (converted)
Procedure: Surface plasmon resonance studies were performed using a Biacore™ T200 SPR system (Cytiva, formerly GE Healthcare). Briefly, polarized light is directed towards a gold-labeled sensor surface, and minimum intensity reflected light is detected. The angle of reflected light changes as molecules bind and dissociate. […] Test compounds are contacted with the loaded surface, and a real-time interaction profile with the FAP ligand is recorded in a sensorgram. In real-time, the association and dissociation of a binding interaction is measured, enabling calculation of association and dissociation rate constants and the corresponding affinity constants. Importantly, a background response is generated due to the difference in the refractive indices of the running and sample buffers, as well as unspecific binding of the test compounds to the flow cell surface. This background is measured and subtracted by running the sample on a control flow cell coated with the same density of capture antibody in the absence of immobilized FAP. Furthermore, baseline drift correction of the binding data is performed, which is caused by slow dissociation of the captured FAP from the immobilized antibody. This drift is measured by injecting running buffer through a flow cell with the antibody and FAP immobilized to the sensor surface.
Biacore™ CM5 sensor chips were used. […] A 150 µL aliquot was transferred into plastic vials and placed into the sample rack of the Biacore™ T200 instrument. Amine Coupling Kit Reagent solutions were transferred into plastic vials and placed into the sample rack: 90 µL of 0.4 M 1-ethyl-3-(3-dimethylaminopropyl)carbodiimide (EDC), and 90 µL of 0.1 M N-hydroxysuccinimide (NHS). A 130 µL aliquot of 1 M ethanolamine-HCl, pH 8.5, was transferred into plastic vials and placed into the sample rack. The Biacore™ liquid system was set-up as follows: Separate bottles containing distilled water (1 L), Running Buffer (500 mL), as well as an empty bottle for waste were placed onto the buffer tray. A preinstalled program for immobilization was used, with an immobilization level of 7000 RU. Immobilization was performed at 25°C. The immobilization procedure of anti-FAP antibodies was performed, as described in the Table 5. Table 5: Immobilization protocol for anti-FAP antibodies used on the CM5 sensor chip.
Human recombinant FAP was diluted in Running Buffer to a final concentration of 20 µg/mL. A 100 µL aliquot of human FAP-Working-Solution was transferred into plastic vials and placed into a sample rack. A 0.5 mM Compound-Stock-Solution was prepared by dissolving each compound in DMSO. For each test compound, Compound-Stock-Solutions were diluted in Running Buffer (HBST) at 500 nM and further diluted with HBST-DMSO Buffer (0.1% DMSO). SPR binding analyses for binary complexes were performed in SCK mode at 25°C. Following three SCK measurements, a baseline drift was assessed by injecting running buffer through a flow cell, with the antibody and FAP immobilized to the sensor surface. Table 6: Protocol for assessing the binding kinetics.
For each test compound, SPR raw data in the form of resonance units (RU) were plotted as sensorgrams using the Biacore™ T200 control software. The signal from the blank sensorgram was subtracted from that of the test compound sensorgram (blank corrected). The blank corrected sensorgram was corrected for baseline drift by subtracting the sensorgram of a SCK run without the test compound (running buffer only). The association rate (kon), dissociation rate (koff), dissociation constant (KD), and t1/2 were calculated from Blank-normalized SPR data using the 1:1 Langmuir binding model from the Biacore™ T200 evaluation software. Raw data and fit results were imported as text files in IDBS. The pKD value (negative decadic logarithm of dissociation constant) was calculated in the IDBS excel template.

Recombinant mouse FAP = biological target: T4, Recombinant mouse FAP (Mus musculus, UniProt P97321); experiment: FRET-based FAP protease activity assay (mouse); format: biochemical; conditions: FRET-peptide substrate, 37°C; for IC50: read-out: pIC50 (mouseFAP) (converted)
T4 construct: purchased R&D systems 8647-SE
T4 sequence (P97321 1-761): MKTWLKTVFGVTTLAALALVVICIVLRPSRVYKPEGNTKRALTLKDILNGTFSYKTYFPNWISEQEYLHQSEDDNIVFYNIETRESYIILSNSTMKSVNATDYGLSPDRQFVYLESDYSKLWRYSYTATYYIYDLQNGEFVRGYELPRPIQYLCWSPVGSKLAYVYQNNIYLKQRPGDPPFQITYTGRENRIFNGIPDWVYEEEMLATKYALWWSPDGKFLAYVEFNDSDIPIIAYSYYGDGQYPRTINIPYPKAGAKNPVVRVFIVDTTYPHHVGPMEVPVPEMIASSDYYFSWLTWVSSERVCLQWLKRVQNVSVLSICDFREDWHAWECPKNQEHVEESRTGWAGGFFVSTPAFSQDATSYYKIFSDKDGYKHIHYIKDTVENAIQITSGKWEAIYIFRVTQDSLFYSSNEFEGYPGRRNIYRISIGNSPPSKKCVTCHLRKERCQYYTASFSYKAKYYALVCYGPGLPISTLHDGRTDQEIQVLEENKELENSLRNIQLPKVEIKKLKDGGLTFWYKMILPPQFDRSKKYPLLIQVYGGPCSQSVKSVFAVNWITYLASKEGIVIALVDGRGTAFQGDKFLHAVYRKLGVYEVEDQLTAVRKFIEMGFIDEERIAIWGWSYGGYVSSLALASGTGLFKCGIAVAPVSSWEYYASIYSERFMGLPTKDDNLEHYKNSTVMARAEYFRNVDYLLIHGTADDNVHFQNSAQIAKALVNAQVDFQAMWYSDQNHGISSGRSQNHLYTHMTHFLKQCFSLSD
Procedure: as §1
25 µL of a 30 µM substrate solution, diluted in assay buffer, was added. […] Four parameter logistic (4PL) curve fitting and pIC50 calculations were performed using ActivityBase software.

T1 sequence (P27487 whole entry): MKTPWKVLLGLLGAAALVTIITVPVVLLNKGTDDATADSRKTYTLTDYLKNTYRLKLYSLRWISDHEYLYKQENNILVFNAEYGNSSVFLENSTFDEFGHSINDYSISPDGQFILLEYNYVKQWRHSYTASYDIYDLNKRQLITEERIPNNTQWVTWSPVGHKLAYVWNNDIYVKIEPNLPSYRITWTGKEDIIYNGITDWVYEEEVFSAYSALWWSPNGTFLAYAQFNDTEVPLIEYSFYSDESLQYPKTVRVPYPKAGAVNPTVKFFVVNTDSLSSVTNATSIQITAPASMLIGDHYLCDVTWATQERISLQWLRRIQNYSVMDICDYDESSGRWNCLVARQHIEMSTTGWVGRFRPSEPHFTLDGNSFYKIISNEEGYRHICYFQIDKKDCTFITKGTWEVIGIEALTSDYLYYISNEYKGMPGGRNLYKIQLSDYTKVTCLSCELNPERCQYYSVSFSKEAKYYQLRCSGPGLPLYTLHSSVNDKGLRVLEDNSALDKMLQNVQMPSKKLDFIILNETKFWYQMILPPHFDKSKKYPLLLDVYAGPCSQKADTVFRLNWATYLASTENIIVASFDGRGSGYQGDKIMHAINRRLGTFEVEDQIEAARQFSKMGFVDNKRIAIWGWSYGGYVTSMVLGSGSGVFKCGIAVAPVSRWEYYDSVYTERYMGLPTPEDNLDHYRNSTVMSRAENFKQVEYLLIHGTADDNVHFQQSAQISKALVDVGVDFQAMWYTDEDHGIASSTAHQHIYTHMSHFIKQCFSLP

Row | SMILES | IC50 (Human recombinant FAP [1]) [nM] | IC50 [2] [nM] | HL [min] (Biacore) (Human recombinant FAP [3]) | also measured
1 | N#C[C@@H]1CCCN1C(=O)CNC(=O)c1ccnc2ccccc12 |  |  |  | IC50 (Recombinant human DPP4): > 1000 nM
2 | CC(C)(C)OC(=O)N1CCN(CCCOc2ccc3nccc(C(=O)NCC(=O)N4CC(F)(F)C[C@H]4C#N)c3c2)CC1 | 1.58 | 3.98 |  | 
3 | Cn1ncnc1C(=O)[C@@H]1CCCN1C(=O)CNC(=O)c1ccnc2ccccc12 | 316 | > 1000 |  | 
4 | CC(C)(C)OC(=O)N1CC[N+]([O-])(CCCOc2ccc3c(c2)c(C(=O)NCC(=O)N2CC(F)(F)C[C@H]2C#N)cc[n+]3[O-])CC1 | 2.51 | 10 |  | 
5 | N#C[C@@H]1CCCN1C(=O)CNC(=O)c1ccnc2ccc(-n3cc(C(=O)NCCCNC(=O)CN4CCN(CC(=O)O)CCN(CC(=O)O)CCN(CC(=O)O)CC4)nn3)cc12 |  |  | 95 | 
6 | CC(C)(C)OC(=O)N1CC[N+]([O-])(CCCOc2ccc3nccc(C(=O)NCC(=O)N4CC(F)(F)C[C@H]4C#N)c3c2)CC1 | 1 | 2.51 |  | 
7 | O=C(NCC(=O)N1CCC[C@H]1B(O)O)c1ccnc2ccccc12 | 1.26 | 3.16 |  | 
8 | N#C[C@@H]1CC(F)(F)CN1C(=O)CNC(=O)c1ccnc2c(OCCCCc3ccccc3)cccc12 |  |  |  | pIC50 (Activity) (Human recombinant FAP [1]): 8.2; pIC50 (FACS) [2]: 7.7
9 | O=C(O)CN1CCN(CC(=O)O)CCN(CC(=O)NCCCS(=O)(=O)c2ccc(-c3ccc4nccc(C(=O)NCC(=O)N5CCC[C@H]5C(=O)c5nc6ccccc6o5)c4c3)cc2)CCN(CC(=O)O)CC1 [drawing 317] |  |  | >500 | pIC50 (mouseFAP) (Recombinant mouse FAP): 8.6; pKD (Biacore) (Human recombinant FAP [3]): >11
10 | O=C(NCC(=O)N1CCC[C@H]1C(=O)CO)c1ccnc2ccccc12 |  |  | 3.1 | pIC50 (mouseFAP) (Recombinant mouse FAP): 8.2
11 | CC(C)(C)OC(=O)N1CCN(CCCOc2ccc3c(c2)c(C(=O)NCC(=O)N2CC(F)(F)C[C@H]2C#N)cc[n+]3[O-])CC1 | 2.51 | 10 |  | 
12 | O=C(NCC(=O)N1CCC[C@H]1C(=O)c1ncn[nH]1)c1ccnc2ccccc12 | 63.1 | 200 |  | IC50 (Recombinant mouse FAP): 79.4 nM
13 | N#C[C@@H]1CC(F)(F)CN1C(=O)CNC(=O)c1ccnc2c(OCC3CC3)cccc12 | 3.16 | 15.8 |  | 
14 | N#C[C@@H]1CCCN1C(=O)CNC(=O)c1ccnc2ccc(-c3ccc(C(=O)O)cc3)cc12 | 1.58 | 2.51 | 11 | IC50 (Recombinant human DPP4): > 1000 nM; Kd (Human recombinant FAP [3]): 0.2 nM
15 | N#C[C@@H]1CC(F)(F)CN1C(=O)CNC(=O)c1ccnc2ccc(-c3ccc(C(=O)NCCN4CCN(C(=O)CN5CCN(CC(=O)O)CCN(CC(=O)O)CCN(CC(=O)O)CC5)CC4)nc3)cc12 |  |  | >500 | pKD (Biacore) (Human recombinant FAP [3]): >11

Now from value to compound, other results behind:

Row | IC50 (Human recombinant FAP [1]) [nM] | IC50 [2] [nM] | HL [min] (Biacore) (Human recombinant FAP [3]) | SMILES | also measured
16 | 3.16 | 20 |  | CCOc1cccc2c(C(=O)NCC(=O)N3CC(F)(F)C[C@H]3C#N)ccnc12 | 
17 | 6.31 | 20 |  | COc1cccc2c(C(=O)NCC(=O)N3CC(F)(F)C[C@H]3C#N)ccnc12 | 
18 | 0.501 | 2 |  | Cc1c(-c2ccc(S(C)(=O)=O)cc2)ccc2nccc(C(=O)NCC(=O)N3CC(F)(F)C[C@H]3C#N)c12 | IC50 (Recombinant mouse FAP): 2 nM
19 | 0.501 | 2 | >500 | CS(=O)(=O)c1ccc(-c2ccc3nccc(C(=O)NCC(=O)N4CC(F)(F)C[C@H]4C#N)c3c2)c(CO)c1 | Kd (Human recombinant FAP [3]): < 0.01 nM
20 |  |  | 10.4 | N#C[C@@H]1CC(F)(F)CN1C(=O)CNC(=O)c1ccnc2ccccc12 | 
21 | 0.501 | 1.26 |  | Cc1cc2nccc(C(=O)NCC(=O)N3CC(F)(F)C[C@H]3C#N)c2cc1-c1ccc(S(C)(=O)=O)cc1 | IC50 (Recombinant mouse FAP): 1.58 nM
22 | 12.6 | 25.1 |  | Cc1cccc2c(C(=O)NCC(=O)N3CC(F)(F)C[C@H]3C#N)ccnc12 | 
